In patent publication US20230137491A1, “PEPTIDES AND USES THEREOF” (SINTICA BIOTECH SOCIETÀ A RESPONSABILITÀ LIMITATA …, priority 2020, published 2023):
Non-standard residues stand in square brackets, D forms with d. methoxy‑PEG 20 kDa = linear 20 kDa methoxy-PEG conjugated through D-Cys sulfur

Experiments:
[1] = tested on: melanoma cell lines (WM115, WM266-4, SKmel28, WM793B, 1205Lu); assay: MTT assay in melanoma cell lines; format: cell-based, human
Description: (§1) 5×10^3 cells/well were seeded in 96-well culture plates. At different time points, cells were incubated with 0.5% MTT (3-(4,5-dimethylthiazol-2-yl)-2,5-diphenyltetrazolium bromide) for 4 h at 37° C. and then dissolved with 100 μl Isopropanol with 0.04N HCl. The plate was read at 560 nm with a reference filter of 650 nm. Results are expressed as viability percentage, as compared to control.
Five melanoma cell lines were used for testing the efficacy of XYZ or its non-PEGylated peptide component: WM115 and WM266-4, which are respectively the primary and metastatic melanoma derived from the same patient and expressing high levels of CD271, and SKme128, a metastatic melanoma cell line expressing low levels of CD271, WM793B, a primary melanoma, and 1205Lu derived from lung metastatic melanoma. The viability of the cell culture is assessed by MTT conversion. MTT solution is applied to the plates and placed into a cell culture incubator for 4 hours. The blue formazan metabolite produced by viable cells is then extracted into isopropanol and absorbance is measured at 570 nm using a spectrophotometer.

CD271 = target: T1, CD271 (Homo sapiens, UniProt P08138); assay: Immunoprecipitation of melanoma cell lysates with the peptide, blotted against CD271; format: binding; conditions: protein extracts of WM266-4 and 1205Lu melanoma cell lines
T1 construct: total protein lysates of WM266-4 and Lu1205 melanoma cell lines were immunoprecipitated with the peptide conjugated to sepharose beads; endogenous in cells; host or cells: WM266-4 and 1205Lu melanoma cell lines (ATCC)
T1 sequence (P08138 29-427): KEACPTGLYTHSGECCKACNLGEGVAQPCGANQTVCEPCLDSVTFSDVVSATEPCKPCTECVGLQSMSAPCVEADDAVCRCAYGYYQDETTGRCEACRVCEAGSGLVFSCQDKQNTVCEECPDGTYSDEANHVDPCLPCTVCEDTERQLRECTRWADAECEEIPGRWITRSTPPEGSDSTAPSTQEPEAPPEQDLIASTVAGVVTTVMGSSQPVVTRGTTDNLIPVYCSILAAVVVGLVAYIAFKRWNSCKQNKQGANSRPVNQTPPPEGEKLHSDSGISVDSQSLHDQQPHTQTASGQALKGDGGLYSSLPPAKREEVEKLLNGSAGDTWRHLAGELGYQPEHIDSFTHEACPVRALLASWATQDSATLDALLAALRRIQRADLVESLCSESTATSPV
Description: FIG. 1. […] Protein extracts from two melanoma cell lines were immunoprecipitated with the Pegylated form of the peptide (XYZ) and blotted against CD271. The sepharose beads-protein lysates (without CD271) is used as negative control, while no-immunoprecipitated protein lysate from WM266-4 is used as positive control.
1205Lu and WM266-4 melanoma cell lines were treated with or without XYZ. 24 h later cells were harvested with RIPA buffer (10 mM Tris, pH 8.0; 150 mM NaCl; 1% Nonidet P-40, 0.5% deoxycholate; 0.1% SDS) containing protease inhibitors. Nuclei were removed by centrifugation (11,000 rpm for 3 min). Monoclonal antibody anti-p75NTR (Upstate) was bound to sepharose beads lh at 4° C. under rotation. Then, pre-cleared lysates were conjugated to sepharose beads-antibody complex or to sepharose beads alone as negative control, overnight at 4° C. under rotation. Immunocomplexes were washed with Port Buffer (10 mM Tris-HCl, pH 8.5; 150 mM NaCl; 0.1% Renex 30; 0.01% BSA; 2.5% NaN3) six times and with PT Buffer (10 mM Tris-HCl, pH 8.5; 150 mM NaCl; 0.5% Tween 20; 2.5% NaN3) three times. Samples were eluted with 1× Laemnli sample buffer for […] at 90° C. and Western Blotting for p75NTR was performed.
Immunocomplexes were washed with Port Buffer and with PT Buffer, then eluted with Laemnli sample buffer for 5′ at 90° C. […]

[2] = tested on: SKMel28 melanoma cell lines overexpressing CD271; assay: MTT assay in cells overexpressing CD271 (CD271 viral vector); format: cell-based, human; conditions: SKMel28 with CD271 viral vector
Text: (§2) FIG. 6. The peptide reduces melanoma cell viability through CD271. WM115 melanoma cell line was transiently transfected with CD271 siRNA, as shwon by western blotting. MTT assay was used to measure cell viability after treatment with the peptide (XYZ) or the diluent in siRNA and scramble cells. SKme128 melanoma cell line was transiently transfected with CD271 mRNA, as shown by western blotting. MTT assay was used to measure cell viability after treatment with the peptide (XYZ) or the diluent in siRNA and scramble cells. Student's t-test was used for comparison of the means.
as §1
Skme128 cell line was plated according to the liquid overlay method. After 24 h, cells were transduced by infection with viral supernatant generated by CD271-LNSN packaging cells or by LNSN packaging cells (kindly provided from F. Mavilio) in appropriate medium for melanoma, as described previously in the presence of polybrene (8 μg/ml). 48 h after infection cells were lysed for WB analysis or seeded for MTT assay.

[3] = tested on: WM115 CD271 silenced (siRNA) melanoma cell line; assay: MTT assay in CD271-silenced (siRNA) cells; format: cell-based, human; conditions: WM115 transfected with CD271 siRNA
Text: as §2, §1
Melanoma cells were plated in 2D for 24 h in antibiotic free medium. WM115 cell line was then transfected with scrambled or CD271 siRNA (50 nM and 100 nM, respectively) (Dharmacon Inc, Lafayette, Colo., USA) in antibiotic/FBS free medium supplemented with 0.1% BSA and 48 h later cells were seeded for MTT assay or lysed for western blotting.

Substance: Ac-DMet-DLeu-Gly-DIle-DIle-DAla-Gly-DLys-DAsn-DSer-Gly-DCys-NH2 with a linear 20 kDa methoxy-PEG polymer conjugated to the D-Cys residue through the sulfur atom of the latter (Ac-[dM][dL]G[dI][dI][dA]G[dK][dN][dS]G[dC](methoxy‑PEG 20 kDa)-NH2) [XYZ]
- cell proliferation (MTT assay), dose dependence ([1]; WM115, WM266-4 and SKmel28, different doses and time points): diminishes cell proliferation, as shown by MTT assay, in a dose-dependent manner
- cell proliferation (MTT assay) ([1]; five melanoma cell lines, 48 h and 96 h after treatment, no significant difference between PEGylated and non-PEGylated form): reduce cell proliferation
- binding to CD271 (immunoprecipitation, blot against CD271) (CD271): immunoprecipitate with CD271
- cell death (MTT assay) in CD271-overexpressing cells [2]: induces cell death to a greater extent
- cell viability (MTT assay) in CD271-silenced cells [3]: fails to reduce cell viability
